Source: ChEMBL document CHEMBL1629695, “A novel polymyxin derivative that lacks the fatty acid tail and carries only three positive charges has strong synergism with agents excluded by the intact outer membrane” (Antimicrob Agents Chemother, 2010)
Values after ≈ are worked out from the molar mass of the structure shown. Bridge positions count the residues as written; N and C are the ends. Square brackets hold non-standard residues; d marks the D form. Peptide text beside a SMILES is read from it. * marks the point of attachment. Octanoyl = CCCCCCCC(=O)*; Dab = NCC[C@H](N)C(=O)O; Abu = CC[C@H](N)C(=O)O

What was measured:
Escherichia coli [1] = test: Antimicrobial activity against Escherichia coli ATCC 25922; type: functional
Escherichia coli [2] = test: Antimicrobial activity against Escherichia coli ATCC 25922 in presence of 2 ug/ml NAB741; type: functional
Escherichia coli [3] = test: Antimicrobial activity against Escherichia coli ATCC 25922 in presence of 4 ug/ml NAB741; type: functional
Escherichia coli [4] = test: Antimicrobial activity against Escherichia coli ATCC 25922 in presence of 8 ug/ml NAB741; type: functional
Escherichia coli [5] = test: Antimicrobial activity against Escherichia coli ATCC 25922 in presence of […] ug/ml NAB741; type: functional
Escherichia coli [6] = test: Antimicrobial activity against Escherichia coli ATCC 25922 in presence of 32 ug/ml NAB741; type: functional
Escherichia coli [7] = test: Antimicrobial activity against Escherichia coli ATCC 25922 by Etest method; type: functional
Escherichia coli [8] = test: Antimicrobial activity against Escherichia coli ATCC 25922 by Etest method in presence of 2 ug/ml NAB741; type: functional
Escherichia coli [9] = test: Antimicrobial activity against Escherichia coli ATCC 25922 by Etest method in presence of 4 ug/ml NAB741; type: functional
Escherichia coli [10] = test: Antimicrobial activity against in Escherichia coli ATCC 25922 in presence of NAB741; type: functional
Escherichia coli [11] = test: Antimicrobial activity against Escherichia coli IH3080 by Etest method; type: functional
Escherichia coli [12] = test: Antimicrobial activity against Escherichia coli IH3080 by Etest method in presence of 2 ug/ml NAB741; type: functional
Escherichia coli [13] = test: Antimicrobial activity against Escherichia coli IH3080 by Etest method in presence of 4 ug/ml NAB741; type: functional
Escherichia coli [14] = test: Antimicrobial activity against in Escherichia coli IH3080 in presence of NAB741; type: functional
Klebsiella pneumoniae [15] = test: Antimicrobial activity against Klebsiella pneumoniae ATCC 13883 by Etest method; type: functional
Klebsiella pneumoniae [16] = test: Antimicrobial activity against Klebsiella pneumoniae ATCC 13883 by Etest method in presence of 2 ug/ml NAB741; type: functional
Klebsiella pneumoniae [17] = test: Antimicrobial activity against Klebsiella pneumoniae ATCC 13883 by Etest method in presence of 4 ug/ml NAB741; type: functional
Enterobacter cloacae [18] = test: Antimicrobial activity against Enterobacter cloacae ATCC 23355 by Etest method; type: functional
Enterobacter cloacae [19] = test: Antimicrobial activity against Enterobacter cloacae ATCC 23355 by Etest method in presence of 2 ug/ml NAB741; type: functional
Enterobacter cloacae [20] = test: Antimicrobial activity against Enterobacter cloacae ATCC 23355 by Etest method in presence of 4 ug/ml NAB741; type: functional
Enterobacter cloacae [21] = test: Antimicrobial activity against in Enterobacter cloacae ATCC 23355 in presence of NAB741; type: functional
Acinetobacter baumannii [22] = test: Antimicrobial activity against Acinetobacter baumannii ATCC 19606 by Etest method; type: functional
Acinetobacter baumannii [23] = test: Antimicrobial activity against Acinetobacter baumannii ATCC 19606 by Etest method in presence of 2 ug/ml NAB741; type: functional
Acinetobacter baumannii [24] = test: Antimicrobial activity against Acinetobacter baumannii ATCC 19606 by Etest method in presence of 4 ug/ml NAB741; type: functional
Acinetobacter baumannii [25] = test: Antimicrobial activity against in Acinetobacter baumannii ATCC 19606 in presence of NAB741; type: functional
Escherichia coli [26] = test: Ratio of MIC for Escherichia coli ATCC 25922 to MIC for Escherichia coli ATCC 25922 in presence of 4 ug/ml of NAB741; type: functional
Escherichia coli [27] = test: Ratio of MIC for Escherichia coli IH3080 to MIC for Escherichia coli IH3080 in presence of 4 ug/ml of NAB741; type: functional
Klebsiella pneumoniae [28] = test: Ratio of MIC for Klebsiella pneumoniae ATCC 13883 to MIC for Klebsiella pneumoniae ATCC 13883 in presence of 4 ug/ml of NAB741; type: functional
Enterobacter cloacae [29] = test: Ratio of MIC for Enterobacter cloacae ATCC 23355 to MIC for Enterobacter cloacae ATCC 23355 in presence of 4 ug/ml of NAB741; type: functional
Acinetobacter baumannii [30] = test: Ratio of MIC for Acinetobacter baumannii ATCC 19606 to MIC for Acinetobacter baumannii ATCC 19606 in presence of 4 ug/ml of NAB741; type: functional
Escherichia coli [31] = test: Antimicrobial activity against Escherichia coli IH3080 assessed as zone of inhibition at 10 ug after 18 hrs by disk diffusion method; type: functional
Escherichia coli [32] = test: Antimicrobial activity against Escherichia coli IH3080 assessed as zone of inhibition at 10 ug after 18 hrs by disk diffusion method in presence of 1 ug/ml rifampin; type: functional
Acinetobacter baumannii [33] = test: Antimicrobial activity against Acinetobacter baumannii ATCC 19606 assessed as zone of inhibition at 10 ug after 18 hrs by disk diffusion method; type: functional
Acinetobacter baumannii [34] = test: Antimicrobial activity against Acinetobacter baumannii ATCC 19606 assessed as zone of inhibition at 10 ug after 18 hrs by disk diffusion method in presence of 1 ug/ml rifampin; type: functional
Pseudomonas aeruginosa [35] = test: Antimicrobial activity against Pseudomonas aeruginosa ATCC 27853 assessed as zone of inhibition at 10 ug after 18 hrs by disk diffusion method; type: functional
Pseudomonas aeruginosa [36] = test: Antimicrobial activity against Pseudomonas aeruginosa ATCC 27853 assessed as zone of inhibition at 10 ug after 18 hrs by disk diffusion method in presence of 1 ug/ml rifampin; type: functional
[37] = Drug level in Sprague-Dawley rat urine at 1 mg/kg, iv; type: ADME, organism-based; parameters: dose 1 mg/kg, route intravenous; conditions: Sprague-Dawley, urine, read-out: Drug uptake

Row | Molecule | MIC (Escherichia coli [9]) | MIC (Escherichia coli [13]) | MIC (Klebsiella pneumoniae [17]) | MIC (Enterobacter cloacae [20]) | MIC (Acinetobacter baumannii [24]) | inhibition zone (IZ) (Escherichia coli [31]) | inhibition zone (IZ) (Escherichia coli [32]) | inhibition zone (IZ) (Acinetobacter baumannii [33]) | inhibition zone (IZ) (Acinetobacter baumannii [34]) | inhibition zone (IZ) (Pseudomonas aeruginosa [35]) | inhibition zone (IZ) (Pseudomonas aeruginosa [36]) | further results
1 | CO[C@H]1/C=C/O[C@@]2(C)Oc3c(C)c(O)c4c(O)c(c(/C=N/N5CCN(C)CC5)c(O)c4c3C2=O)NC(=O)/C(C)=C\C=C\[C@H](C)[C@H](O)[C@@H](C)[C@@H](O)[C@@H](C)[C@H](OC(C)=O)[C@@H]1C [RIFAMPIN] | 0.016 µg/mL | 0.047 µg/mL | 0.5 µg/mL | 0.016 µg/mL | 0.094 µg/mL |  |  |  |  |  |  | MIC (Escherichia coli [1]): 8 µg/mL (≈ 9.72 µM); MIC (Escherichia coli [2]): 4 µg/mL; MIC (Escherichia coli [3]): 1 µg/mL; MIC (Escherichia coli [4]): 0.25 µg/mL; MIC (Escherichia coli [5]): 0.063 µg/mL; MIC (Escherichia coli [6]): 0.031 µg/mL; MIC (Escherichia coli [7]): 4 µg/mL (≈ 4.86 µM); MIC (Escherichia coli [8]): 0.64 µg/mL; fractional inhibitory concentration index (FICI) (Escherichia coli [10]): 0.126; MIC (Escherichia coli [11]): 4 µg/mL (≈ 4.86 µM); MIC (Escherichia coli [12]): 0.19 µg/mL; fractional inhibitory concentration index (FICI) (Escherichia coli [14]): 0.111; MIC (Klebsiella pneumoniae [15]): 12 µg/mL (≈ 14.6 µM); MIC (Klebsiella pneumoniae [16]): 1 µg/mL; MIC (Enterobacter cloacae [18]): 6 µg/mL (≈ 7.29 µM); MIC (Enterobacter cloacae [19]): 1.5 µg/mL; fractional inhibitory concentration index (FICI) (Enterobacter cloacae [21]): 0.126; MIC (Acinetobacter baumannii [22]): 1.5 µg/mL (≈ 1.82 µM); MIC (Acinetobacter baumannii [23]): 0.19 µg/mL; fractional inhibitory concentration index (FICI) (Acinetobacter baumannii [25]): 0.131
2 | CN[C@H](CC(C)C)C(=O)N[C@H]1C(=O)N[C@@H](CC(N)=O)C(=O)N[C@H]2C(=O)N[C@H]3C(=O)N[C@H](C(=O)N[C@H](C(=O)O)c4cc(O)cc(O)c4-c4cc3ccc4O)[C@H](O)c3ccc(c(Cl)c3)Oc3cc2cc(c3O[C@@H]2O[C@H](CO)[C@@H](O)[C@H](O)[C@H]2O[C@H]2C[C@](C)(N)[C@H](O)[C@H](C)O2)Oc2ccc(cc2Cl)[C@H]1O [VANCOMYCIN] | 8 µg/mL | 16 µg/mL | 128 µg/mL | 1.5 µg/mL | 24 µg/mL |  |  |  |  |  |  | Ratio (Escherichia coli [26]): >32; Ratio (Escherichia coli [27]): >16; Ratio (Klebsiella pneumoniae [28]): >2; Ratio (Enterobacter cloacae [29]): >170; Ratio (Acinetobacter baumannii [30]): >11
3 | POLYMYXIN B |  |  |  |  |  | 129 mm2 | 133 mm2 | 185 mm2 | 202 mm2 | 151 mm2 | 166 mm2 | 
4 | CCCCCCCC(=O)N[C@H](C(=O)N[C@H](CO)C(=O)N[C@H]1CCNC(=O)[C@H]([C@@H](C)O)NC(=O)[C@H](CCN)NC(=O)[C@H](CCN)NC(=O)[C@H](CC(C)C)NC(=O)[C@@H](Cc2ccccc2)NC(=O)[C@H](CCN)NC1=O)[C@@H](C)O (Octanoyl-T[dS][Dab][Dab][dF]L[Dab][Dab]T; lactam 3-C) |  |  |  |  |  | 170 mm2 | 212 mm2 | 161 mm2 | 395 mm2 | 81 mm2 | 87 mm2 | 
5 | CCCCCCCC(=O)N[C@H](C(=O)N[C@@H](CC)C(=O)N[C@H]1CCNC(=O)[C@H]([C@@H](C)O)NC(=O)[C@H](CCN)NC(=O)[C@H](CCN)NC(=O)[C@H](CC(C)C)NC(=O)[C@@H](Cc2ccccc2)NC(=O)[C@H](CCN)NC1=O)[C@@H](C)O (Octanoyl-T[Abu][Dab][Dab][dF]L[Dab][Dab]T; lactam 3-C) |  |  |  |  |  |  |  |  |  |  |  | dose excreted [37]: 7.16%
6 | CN[C@H](C(=O)N[C@H](CO)C(=O)N[C@H]1CCNC(=O)[C@H]([C@@H](C)O)NC(=O)[C@H](CCN)NC(=O)[C@H](CCN)NC(=O)[C@H](CC(C)C)NC(=O)[C@@H](Cc2ccccc2)NC(=O)[C@H](CCN)NC1=O)[C@@H](C)O |  |  |  |  |  | 3 mm2 | 130 mm2 | 3 mm2 | 79 mm2 | 7 mm2 | 38 mm2 | 
7 | CC(=O)O[C@H]1C[C@@]2(C)[C@@H](C[C@@H](O)[C@H]3[C@@]4(C)CC[C@@H](O)[C@@H](C)[C@@H]4CC[C@@]32C)/C1=C(\CCC=C(C)C)C(=O)O [FUSIDIC ACID] | 1.5 µg/mL | 2 µg/mL | 48 µg/mL | 2 µg/mL | 6 µg/mL |  |  |  |  |  |  | Ratio (Escherichia coli [26]): >170; Ratio (Escherichia coli [27]): >130; Ratio (Klebsiella pneumoniae [28]): >5; Ratio (Enterobacter cloacae [29]): >130; Ratio (Acinetobacter baumannii [30]): >43
